Reference: patent US20230148599A1, “FUNGICIDAL MIXTURES CONTAINING PYRAZOLE DERIVATIVES” (FMC Corporation, priority 2020, published 2023)

test system: Septoria tritici; test: Test A: wheat leaf blotch, preventive spray on wheat seedlings; type: in vivo; details: 50 ppm, 100 = 100% disease control, 0 = no control
Text: (§1) General protocol for preparing test suspensions for Tests A-F: the test compounds were first dissolved in acetone in an amount equal to 3% of the final volume and then suspended at the desired concentration (in ppm) in acetone and purified water (50/50 mix by volume) containing 250 ppm of the surfactant PEG400 (polyhydric alcohol esters). The resulting test suspensions were then used in Tests A-F.
(§2) The test solution was sprayed to the point of run-off on wheat seedlings. The following day the seedlings were inoculated with a spore suspension of Septoria tritici (the causal agent of wheat leaf blotch) and incubated in a saturated atmosphere at 24° C. for 48 h, and then moved to a growth chamber at 20° C. for 17 days, after which time disease ratings were made.
(§3) A rating of 100 indicates 100% disease control and a rating of 0 indicates no disease control (relative to the controls). A dash (−) indicates the compound was not tested.

| SMILES | Test A disease control rating |
| --- | --- |
| Cc1nn(C)c(Nc2ccc(F)cc2[N+](=O)[O-])c1-c1ccc(F)cc1Br [compound 20] | 100% |
| Cc1nn(C)c(Nc2ccc(Br)cc2[N+](=O)[O-])c1-c1ccc(F)cc1Br [compound 21] | 100% |
| Cc1nn(C)c(Nc2ccc(Cl)cc2[N+](=O)[O-])c1-c1c(F)cccc1Cl [compound 22] | 100% |
| Cc1cc(Cl)c(Nc2c(-c3c(F)cccc3Cl)c(C)nn2C)c([N+](=O)[O-])c1 [compound 24] | 100% |
| Cc1nn(C)c(Nc2c(F)cccc2[N+](=O)[O-])c1-c1c(F)cccc1Cl [compound 25] | 100% |

same assay, conditions: Zymoseptoria tritici, 456 h, 50 ppm, 100 = 100% disease control, 0 = no control, read-out: Test A disease control rating

| SMILES | pest or weed control at 50 ppm |
| --- | --- |
| Cc1nn(C)c(N(C)c2c(F)cccc2[N+](=O)[O-])c1-c1ccc(F)cc1Cl [Compound 172] | 100% |

test system: Puccinia recondita f. sp. tritici; test: Test B: wheat leaf rust, preventive spray on wheat seedlings; type: in vivo; details: 50 ppm, 100 = 100% disease control, 0 = no control
Text: as §1
as §2, with “Puccinia recondita f. sp.” for “Septoria”, “rust)” for “blotch)”, “20°” for “24°”, “24” for “48”, “7” for “17”
as §3

| SMILES | Test B disease control rating |
| --- | --- |
| CCc1ccc(Nc2c(-c3ccc(F)cc3Cl)c(C)nn2C)c([N+](=O)[O-])c1 [compound 6] | 74% |
| Cc1nn(C)c(Nc2ccc(F)cc2[N+](=O)[O-])c1-c1ccc(F)cc1Br [compound 20] | 89% |
| Cc1nn(C)c(Nc2ccc(Br)cc2[N+](=O)[O-])c1-c1ccc(F)cc1Br [compound 21] | 86% |
| Cc1nn(C)c(Nc2ccc(Cl)cc2[N+](=O)[O-])c1-c1c(F)cccc1Cl [compound 22] | 93% |
| Cc1cc(Cl)c(Nc2c(-c3c(F)cccc3Cl)c(C)nn2C)c([N+](=O)[O-])c1 [compound 24] | 89% |
| Cc1nn(C)c(Nc2c(F)cccc2[N+](=O)[O-])c1-c1c(F)cccc1Cl [compound 25] | 100% |
| COc1ccc(Nc2c(-c3c(F)cccc3F)c(C)nn2C)c([N+](=O)[O-])c1 [compound 87] | 99% |
| COc1ccc(Nc2c(-c3ccc(F)cc3F)c(C)nn2C)c([N+](=O)[O-])c1 [compound 88] | 97% |
| COc1ccc(Nc2c(-c3c(F)cc(F)cc3Cl)c(C)nn2C)c([N+](=O)[O-])c1 [compound 89] | 100% |
| Cc1ccc(Nc2c(-c3c(F)cc(F)cc3Cl)c(C)nn2C)c([N+](=O)[O-])c1 [compound 106] | 100% |
| Cc1ccc(Nc2c(-c3ccc(F)cc3F)c(C)nn2C)c([N+](=O)[O-])c1 [compound 107] | 91% |

same assay, conditions: 192 h, 50 ppm, 100 = 100% disease control, 0 = no control, read-out: Test B disease control rating

| SMILES | pest or weed control at 50 ppm |
| --- | --- |
| Cc1nn(C)c(N(C)c2c(F)cccc2[N+](=O)[O-])c1-c1ccc(F)cc1Cl [Compound 172] | 100% |

test system: Blumeria graminis f. sp. tritici; test: Test C: wheat powdery mildew, preventive spray on wheat seedlings; type: in vivo; details: 50 ppm, 100 = 100% disease control, 0 = no control
Text: as §1
The test suspension was sprayed to the point of run-off on wheat seedlings. The following day the seedlings were inoculated with a spore dust of Blumeria graminis f. sp. tritici, (also known as Erysiphe graminis f. sp. tritici, the causal agent of wheat powdery mildew) and incubated in a growth chamber at 20° C. for 8 days, after which time visual disease ratings were made.
as §3

| SMILES | Test C disease control rating |
| --- | --- |
| CCc1ccc(Nc2c(-c3ccc(F)cc3Cl)c(C)nn2C)c([N+](=O)[O-])c1 [compound 6] | 27% |
| Cc1nn(C)c(Nc2ccc(F)cc2[N+](=O)[O-])c1-c1ccc(F)cc1Br [compound 20] | 92% |
| Cc1nn(C)c(Nc2ccc(Br)cc2[N+](=O)[O-])c1-c1ccc(F)cc1Br [compound 21] | 84% |
| Cc1nn(C)c(Nc2ccc(Cl)cc2[N+](=O)[O-])c1-c1c(F)cccc1Cl [compound 22] | 97% |
| Cc1cc(Cl)c(Nc2c(-c3c(F)cccc3Cl)c(C)nn2C)c([N+](=O)[O-])c1 [compound 24] | 0% |
| Cc1nn(C)c(Nc2c(F)cccc2[N+](=O)[O-])c1-c1c(F)cccc1Cl [compound 25] | 99% |
| COc1ccc(Nc2c(-c3c(F)cccc3F)c(C)nn2C)c([N+](=O)[O-])c1 [compound 87] | 98% |
| COc1ccc(Nc2c(-c3ccc(F)cc3F)c(C)nn2C)c([N+](=O)[O-])c1 [compound 88] | 84% |
| COc1ccc(Nc2c(-c3c(F)cc(F)cc3Cl)c(C)nn2C)c([N+](=O)[O-])c1 [compound 89] | 99% |
| Cc1ccc(Nc2c(-c3c(F)cc(F)cc3Cl)c(C)nn2C)c([N+](=O)[O-])c1 [compound 106] | 98% |
| Cc1ccc(Nc2c(-c3ccc(F)cc3F)c(C)nn2C)c([N+](=O)[O-])c1 [compound 107] | 61% |

test system: Phakopsora pachyrhizi; test: Test D: Asian soybean rust, preventive spray on soybean seedlings; type: in vivo; details: 50 ppm, 100 = 100% disease control, 0 = no control
Text: as §1
The test solution was sprayed to the point of run-off on soybean seedlings. The following day the seedlings were inoculated with a spore suspension of Phakopsora pachyrhizi (the causal agent of Asian soybean rust) and incubated in a saturated atmosphere at 22° C. for 24 h and then moved to a growth chamber at 22° C. for 8 days, after which time visual disease ratings were made.
as §3

| SMILES | Test D disease control rating |
| --- | --- |
| CCc1ccc(Nc2c(-c3ccc(F)cc3Cl)c(C)nn2C)c([N+](=O)[O-])c1 [compound 6] | 0% |
| Cc1nn(C)c(Nc2ccc(F)cc2[N+](=O)[O-])c1-c1ccc(F)cc1Br [compound 20] | 0% |
| Cc1nn(C)c(Nc2ccc(Br)cc2[N+](=O)[O-])c1-c1ccc(F)cc1Br [compound 21] | 0% |
| Cc1nn(C)c(Nc2ccc(Cl)cc2[N+](=O)[O-])c1-c1c(F)cccc1Cl [compound 22] | 0% |
| Cc1cc(Cl)c(Nc2c(-c3c(F)cccc3Cl)c(C)nn2C)c([N+](=O)[O-])c1 [compound 24] | 0% |
| Cc1nn(C)c(Nc2c(F)cccc2[N+](=O)[O-])c1-c1c(F)cccc1Cl [compound 25] | 98% |
| COc1ccc(Nc2c(-c3c(F)cccc3F)c(C)nn2C)c([N+](=O)[O-])c1 [compound 87] | 0% |
| COc1ccc(Nc2c(-c3ccc(F)cc3F)c(C)nn2C)c([N+](=O)[O-])c1 [compound 88] | 0% |
| COc1ccc(Nc2c(-c3c(F)cc(F)cc3Cl)c(C)nn2C)c([N+](=O)[O-])c1 [compound 89] | 80% |
| Cc1ccc(Nc2c(-c3c(F)cc(F)cc3Cl)c(C)nn2C)c([N+](=O)[O-])c1 [compound 106] | 0% |
| Cc1ccc(Nc2c(-c3ccc(F)cc3F)c(C)nn2C)c([N+](=O)[O-])c1 [compound 107] | 0% |

same assay, conditions: 216 h, 50 ppm, 100 = 100% disease control, 0 = no control, read-out: Test D disease control rating

| SMILES | pest or weed control at 50 ppm |
| --- | --- |
| Cc1nn(C)c(N(C)c2c(F)cccc2[N+](=O)[O-])c1-c1ccc(F)cc1Cl [Compound 172] | 0% |

test system: Botrytis cinerea; test: Test E: tomato Botrytis, preventive spray on tomato seedlings; type: in vivo; details: 50 ppm, 100 = 100% disease control, 0 = no control
Text: as §1
(§4) The test suspension was sprayed to the point of run-off on tomato seedlings. The following day the seedlings were inoculated with a spore suspension of Botrytis cinerea (the causal agent of tomato Botrytis) and incubated in a saturated atmosphere at 20° C. for 48 h, and then moved to a growth chamber at 24° C. for 3 days, after which time visual disease ratings were made.
as §3

| SMILES | Test E disease control rating |
| --- | --- |
| CCc1ccc(Nc2c(-c3ccc(F)cc3Cl)c(C)nn2C)c([N+](=O)[O-])c1 [compound 6] | 55% |
| Cc1nn(C)c(Nc2ccc(F)cc2[N+](=O)[O-])c1-c1ccc(F)cc1Br [compound 20] | 99% |
| Cc1nn(C)c(Nc2ccc(Br)cc2[N+](=O)[O-])c1-c1ccc(F)cc1Br [compound 21] | 95% |
| Cc1nn(C)c(Nc2ccc(Cl)cc2[N+](=O)[O-])c1-c1c(F)cccc1Cl [compound 22] | 99% |
| Cc1cc(Cl)c(Nc2c(-c3c(F)cccc3Cl)c(C)nn2C)c([N+](=O)[O-])c1 [compound 24] | 97% |
| Cc1nn(C)c(Nc2c(F)cccc2[N+](=O)[O-])c1-c1c(F)cccc1Cl [compound 25] | 100% |
| COc1ccc(Nc2c(-c3c(F)cccc3F)c(C)nn2C)c([N+](=O)[O-])c1 [compound 87] | 98% |
| COc1ccc(Nc2c(-c3ccc(F)cc3F)c(C)nn2C)c([N+](=O)[O-])c1 [compound 88] | 99% |
| COc1ccc(Nc2c(-c3c(F)cc(F)cc3Cl)c(C)nn2C)c([N+](=O)[O-])c1 [compound 89] | 99% |
| Cc1ccc(Nc2c(-c3c(F)cc(F)cc3Cl)c(C)nn2C)c([N+](=O)[O-])c1 [compound 106] | 99% |
| Cc1ccc(Nc2c(-c3ccc(F)cc3F)c(C)nn2C)c([N+](=O)[O-])c1 [compound 107] | 98% |

same assay, conditions: 120 h, 50 ppm, 100 = 100% disease control, 0 = no control, read-out: Test E disease control rating

| SMILES | pest or weed control at 50 ppm |
| --- | --- |
| Cc1nn(C)c(N(C)c2c(F)cccc2[N+](=O)[O-])c1-c1ccc(F)cc1Cl [Compound 172] | 99% |

test system: Alternaria solani; test: Test F: tomato early blight, preventive spray on tomato seedlings; type: in vivo; details: 50 ppm, 100 = 100% disease control, 0 = no control
Text: as §1
as §4, with “Alternaria solani” for “Botrytis cinerea”, “early blight)” for “Botrytis)”, “27°” for “20°”, “20°” for “24°”
as §3

| SMILES | Test F disease control rating |
| --- | --- |
| CCc1ccc(Nc2c(-c3ccc(F)cc3Cl)c(C)nn2C)c([N+](=O)[O-])c1 [compound 6] | 0% |
| Cc1nn(C)c(Nc2ccc(F)cc2[N+](=O)[O-])c1-c1ccc(F)cc1Br [compound 20] | 26% |
| Cc1nn(C)c(Nc2ccc(Br)cc2[N+](=O)[O-])c1-c1ccc(F)cc1Br [compound 21] | 17% |
| Cc1nn(C)c(Nc2ccc(Cl)cc2[N+](=O)[O-])c1-c1c(F)cccc1Cl [compound 22] | 64% |
| Cc1cc(Cl)c(Nc2c(-c3c(F)cccc3Cl)c(C)nn2C)c([N+](=O)[O-])c1 [compound 24] | 0% |
| Cc1nn(C)c(Nc2c(F)cccc2[N+](=O)[O-])c1-c1c(F)cccc1Cl [compound 25] | 98% |
| COc1ccc(Nc2c(-c3c(F)cccc3F)c(C)nn2C)c([N+](=O)[O-])c1 [compound 87] | 93% |
| COc1ccc(Nc2c(-c3ccc(F)cc3F)c(C)nn2C)c([N+](=O)[O-])c1 [compound 88] | 9% |
| COc1ccc(Nc2c(-c3c(F)cc(F)cc3Cl)c(C)nn2C)c([N+](=O)[O-])c1 [compound 89] | 99% |
| Cc1ccc(Nc2c(-c3c(F)cc(F)cc3Cl)c(C)nn2C)c([N+](=O)[O-])c1 [compound 106] | 68% |
| Cc1ccc(Nc2c(-c3ccc(F)cc3F)c(C)nn2C)c([N+](=O)[O-])c1 [compound 107] | 0% |

same assay, conditions: 120 h, 50 ppm, 100 = 100% disease control, 0 = no control, read-out: Test F disease control rating

| SMILES | pest or weed control at 50 ppm |
| --- | --- |
| Cc1nn(C)c(N(C)c2c(F)cccc2[N+](=O)[O-])c1-c1ccc(F)cc1Cl [Compound 172] | 40% |
